Measurements taken from patent US6706663B2, “Herbicidal 3-heterocyclic substituted benzisothiazole and benzisoxazole compounds” (Wyeth, priority 2000, dated 2004).

Key:
[1] = tested on: GALAP (Galium aparine); assay: Postemergence herbicidal evaluation; type: in vivo; conditions: postemergence
How it was run: (§1)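 Visual 0–9 injury scores versus control plants, covering stand, vigour, malformation, size, chlorosis and general appearance, taken four to five weeks post-spray and averaged over replicate tests. Plants were sprayed at roughly two weeks old and held on greenhouse benches.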

[2] = tested on: SETVI (Setaria viridis); assay: Postemergence herbicidal evaluation; type: in vivo, (L.) Beau; conditions: postemergence
How it was run: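 Postemergence foliar spray on two-week-old seedlings, dose equivalent to about 0.0040 to 1.000 kg/ha. Ratings use a 0-9 visual scale relative to control at four to five weeks.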

[3] = tested on: GLXMAW (Soybean, Williams); assay: Postemergence herbicidal evaluation; type: in vivo, Glycine max, (L.) Merr. cv Williams; conditions: postemergence
How it was run: as §1

[4] = tested on: GALAP (Galium aparine); assay: Preemergence herbicidal evaluation; type: in vivo; conditions: rated 4-5 weeks after treatment
How it was run: (§2)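 Visual 0-9 rating versus untreated control, taken four to five weeks post-treatment, scoring stand, vigor, malformation, size, chlorosis and overall appearance. Compound applied as aqueous acetone spray to freshly seeded soil cups, then kept under standard greenhouse care.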

[5] = tested on: IPOHE (Ipomoea hederacea); assay: Preemergence herbicidal evaluation; type: in vivo, (L.) Jacq.; conditions: rated 4-5 weeks after treatment
[6] = tested on: ECHCG (Echinochloa crus-galli); assay: Preemergence herbicidal evaluation; type: in vivo, (L.) Beau; conditions: rated 4-5 weeks after treatment
How it was run: as §2

[7] = tested on: SETVI (Setaria viridis); assay: Preemergence herbicidal evaluation; type: in vivo, (L.) Beau; conditions: rated 4-5 weeks after treatment
How it was run: as §2

[8] = tested on: GLXMAW (Soybean, Williams); assay: Preemergence herbicidal evaluation; type: in vivo, Glycine max, (L.) Merr. cv Williams; conditions: rated 4-5 weeks after treatment
[9] = tested on: ZEAMX (Corn, Field); assay: Preemergence herbicidal evaluation; type: in vivo, Zea mays, L.; conditions: rated 4-5 weeks after treatment
[10] = tested on: CYPIR (Cyperus iria); assay: Flooded paddy, preemergence weed control; type: in vivo; conditions: rated 3-4 weeks after treatment, 0-9 rating scale
How it was run: (§3)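 Preemergence, flooded: propagules planted at 0.5 cm depth in silt loam, water level maintained at 1.5 to 3 cm over soil, containers kept on greenhouse benches. Activity scored 0-9 by eye relative to a control plant.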

[11] = tested on: MOOVA (Monochoria vaginalis); assay: Flooded paddy, preemergence weed control; type: in vivo, Presl.; conditions: rated 3-4 weeks after treatment, 0-9 rating scale
How it was run: as §3

| Structure (SMILES) | GALAP herbicidal rating ([1]; rate 0.0320 kg/ha) | GALAP herbicidal rating ([1]; rate 0.0620 kg/ha) | SETVI herbicidal rating ([2]; rate 0.0320 kg/ha) | SETVI herbicidal rating ([2]; rate 0.0620 kg/ha) | GLXMAW herbicidal rating ([3]; rate 0.0320 kg/ha) | GLXMAW herbicidal rating ([3]; rate 0.0620 kg/ha) | Preemergence herbicidal rating GALAP ([4]; Rate 0.1250 kg/ha) | Preemergence herbicidal rating GALAP ([4]; Rate 0.2500 kg/ha) | Preemergence herbicidal rating IPOHE ([5]; Rate 0.0620 kg/ha) | Preemergence herbicidal rating IPOHE ([5]; Rate 0.1250 kg/ha) | Preemergence herbicidal rating IPOHE ([5]; Rate 0.2500 kg/ha) | Preemergence herbicidal rating ECHCG ([6]; Rate 0.0620 kg/ha) | Preemergence herbicidal rating ECHCG ([6]; Rate 0.1250 kg/ha) | Preemergence herbicidal rating ECHCG ([6]; Rate 0.2500 kg/ha) | Preemergence herbicidal rating SETVI ([7]; Rate 0.0620 kg/ha) | Preemergence herbicidal rating SETVI ([7]; Rate 0.1250 kg/ha) | Preemergence herbicidal rating SETVI ([7]; Rate 0.2500 kg/ha) | Preemergence herbicidal rating GLXMAW ([8]; Rate 0.0620 kg/ha) | Preemergence herbicidal rating GLXMAW ([8]; Rate 0.1250 kg/ha) | Preemergence herbicidal rating GLXMAW ([8]; Rate 0.2500 kg/ha) | other results |
| --- | --- | --- | --- | --- | --- | --- | --- | --- | --- | --- | --- | --- | --- | --- | --- | --- | --- | --- | --- | --- | --- |
| Cn1c(C(F)(F)F)cc(=O)n(-c2ccc3snc(C4OCC(CCl)O4)c3c2)c1=O (centres unmarked) [Compound 72, 3-[3-[4-(chloromethyl)-1,3-dioxolan-2-yl]-1,2-benzisothiazol-5-yl]-1-methyl-6-(trifluoromethyl)uracil] | 9.0 | 9.0 | 8.0 | 8.0 | 6.5 | 8.5 | 9.0 | 9.0 | 3.5 | 6.5 | 8.0 | 9.0 | 9.0 | 9.0 | 9.0 | 9.0 | 9.0 | 6.5 | 9.0 | 9.0 | Preemergence herbicidal rating GALAP ([4]; Rate 0.0620 kg/ha): 8.0; Preemergence herbicidal rating ZEAMX ([9]; Rate 0.0620 kg/ha): 8.0; Preemergence herbicidal rating ZEAMX ([9]; Rate 0.1250 kg/ha): 8.5; Preemergence herbicidal rating ZEAMX ([9]; Rate 0.2500 kg/ha): 9.0; herbicidal rating, CYPIR ([10]; rate 0.0080 kg/ha): 0.0; herbicidal rating, CYPIR ([10]; rate 0.0320 kg/ha): 3.0; herbicidal rating, CYPIR ([10]; rate 0.1250 kg/ha): 9.0; herbicidal rating, MOOVA ([11]; rate 0.0080 kg/ha): 0.0; herbicidal rating, MOOVA ([11]; rate 0.0320 kg/ha): 9.0; herbicidal rating, MOOVA ([11]; rate 0.1250 kg/ha): 9.0 |
| Cn1c(C(F)(F)F)cc(=O)n(-c2ccc3snc(C4OCC(CO)O4)c3c2)c1=O (centres unmarked) [Compound 73, 3-[3-[4-(hydroxymethyl)-1,3-dioxolan-2-yl]-1,2-benzisothiazol-5-yl]-1-methyl-6-(trifluoromethyl)uracil] | 9.0 | 9.0 | 4.0 | 8.0 | 5.5 | 7.5 | 8.0 | 9.0 | 7.0 | 9.0 | 9.0 | 7.5 | 9.0 | 9.0 | 9.0 | 9.0 | 9.0 | 4.0 | 7.0 | 8.0 | Preemergence herbicidal rating GALAP ([4]; Rate 0.0620 kg/ha): 8.0; Preemergence herbicidal rating ZEAMX ([9]; Rate 0.0620 kg/ha): 6.5; Preemergence herbicidal rating ZEAMX ([9]; Rate 0.1250 kg/ha): 9.0; Preemergence herbicidal rating ZEAMX ([9]; Rate 0.2500 kg/ha): 9.0; herbicidal rating, CYPIR ([10]; rate 0.0080 kg/ha): 0.0; herbicidal rating, CYPIR ([10]; rate 0.0320 kg/ha): 0.0; herbicidal rating, CYPIR ([10]; rate 0.1250 kg/ha): 9.0; herbicidal rating, MOOVA ([11]; rate 0.0080 kg/ha): 0.0; herbicidal rating, MOOVA ([11]; rate 0.0320 kg/ha): 0.0; herbicidal rating, MOOVA ([11]; rate 0.1250 kg/ha): 9.0 |
| CC(C)C1COC(c2nsc3ccc(-n4c(=O)cc(C(F)(F)F)n(C)c4=O)cc23)=N1 (centres unmarked) [Compound 74, 3-[3-(4-isopropyl-2-oxazolin-2-yl)-1,2-benzisothiazol-5-yl]-1-methyl-6-(trifluoromethyl)uracil] | 6.0 | 8.0 | 2.0 | 2.0 | 5.5 | 7.0 | 7.0 | 9.0 | 0.0 | 0.0 | 8.0 | 0.0 | 2.0 | 6.0 | 0.0 | 2.0 | 8.0 | 1.0 | 1.0 | 9.0 | Preemergence herbicidal rating GALAP ([4]; Rate 0.0620 kg/ha): 6.0; Preemergence herbicidal rating ZEAMX ([9]; Rate 0.0620 kg/ha): 2.0; Preemergence herbicidal rating ZEAMX ([9]; Rate 0.1250 kg/ha): 2.0; Preemergence herbicidal rating ZEAMX ([9]; Rate 0.2500 kg/ha): 4.0; herbicidal rating, CYPIR ([10]; rate 0.0080 kg/ha): 0.0; herbicidal rating, CYPIR ([10]; rate 0.0320 kg/ha): 6.0; herbicidal rating, CYPIR ([10]; rate 0.1250 kg/ha): 9.0; herbicidal rating, MOOVA ([11]; rate 0.0080 kg/ha): 4.5; herbicidal rating, MOOVA ([11]; rate 0.0320 kg/ha): 9.0; herbicidal rating, MOOVA ([11]; rate 0.1250 kg/ha): 9.0 |
| Cn1c(C(F)(F)F)cc(=O)n(-c2ccc3snc(C4=NCCO4)c3c2)c1=O [Compound 75, 1-methyl-3-[3(2-oxazolin-2-yl)-1,2-benzisothiazol-5-yl]-6-(trifluoromethyl)uracil] | 5.0 | 7.0 | 2.0 | 4.0 | 5.5 | 7.0 | 7.0 | 9.0 | 0.0 | 4.0 | 7.0 | 0.0 | 1.0 | 6.0 | 0.0 | 1.0 | 6.0 | 0.0 | 1.0 | 4.0 | Preemergence herbicidal rating GALAP ([4]; Rate 0.0620 kg/ha): 5.0; Preemergence herbicidal rating ZEAMX ([9]; Rate 0.0620 kg/ha): 1.0; Preemergence herbicidal rating ZEAMX ([9]; Rate 0.1250 kg/ha): 2.0; Preemergence herbicidal rating ZEAMX ([9]; Rate 0.2500 kg/ha): 3.0; herbicidal rating, CYPIR ([10]; rate 0.0080 kg/ha): 0.0; herbicidal rating, CYPIR ([10]; rate 0.0320 kg/ha): 7.0; herbicidal rating, CYPIR ([10]; rate 0.1250 kg/ha): 9.0; herbicidal rating, MOOVA ([11]; rate 0.0080 kg/ha): 0.0; herbicidal rating, MOOVA ([11]; rate 0.0320 kg/ha): 7.0; herbicidal rating, MOOVA ([11]; rate 0.1250 kg/ha): 9.0 |
| C=CC1COC(c2nsc3ccc(-n4c(=O)cc(C(F)(F)F)n(C)c4=O)cc23)O1 (centres unmarked) [Compound 76, 1-methyl-6-(trifluoromethyl)-3-[3-(4-vinyl-1,3-dioxolan-2-yl)-1,2-benzisothiazol-5-yl]uracil] | 5.0 | 7.0 | 7.0 | 9.0 | 7.0 | 8.0 | 9.0 | 9.0 | 7.5 | 9.0 | 9.0 | 9.0 | 9.0 | 9.0 | 9.0 | 9.0 | 9.0 | 7.5 | 9.0 | 9.0 | Preemergence herbicidal rating GALAP ([4]; Rate 0.0620 kg/ha): 7.0; Preemergence herbicidal rating ZEAMX ([9]; Rate 0.0620 kg/ha): 8.5; Preemergence herbicidal rating ZEAMX ([9]; Rate 0.1250 kg/ha): 8.5; Preemergence herbicidal rating ZEAMX ([9]; Rate 0.2500 kg/ha): 9.0; herbicidal rating, CYPIR ([10]; rate 0.0080 kg/ha): 7.0; herbicidal rating, CYPIR ([10]; rate 0.0320 kg/ha): 8.0; herbicidal rating, CYPIR ([10]; rate 0.1250 kg/ha): 9.0; herbicidal rating, MOOVA ([11]; rate 0.0080 kg/ha): 9.0; herbicidal rating, MOOVA ([11]; rate 0.0320 kg/ha): 9.0; herbicidal rating, MOOVA ([11]; rate 0.1250 kg/ha): 9.0 |
| CCCC1COC(c2nsc3ccc(-n4c(=O)cc(C(F)(F)F)n(C)c4=O)cc23)O1 (centres unmarked) [Compound 77, 1-methyl-3-[3-(4-propyl-1,3-dioxolan-2-yl)-1,2-benzisothiazol-5-yl]-6-(trifluoromethyl)uracil] | 4.0 | 7.0 | 9.0 | 5.0 | 7.5 | 8.5 | 7.0 | 9.0 | 3.0 | 4.0 | 7.5 | 8.5 | 9.0 | 9.0 | 8.5 | 9.0 | 9.0 | 4.0 | 6.0 | 9.0 | Preemergence herbicidal rating ZEAMX ([9]; Rate 0.0620 kg/ha): 7.0; Preemergence herbicidal rating ZEAMX ([9]; Rate 0.1250 kg/ha): 7.5; Preemergence herbicidal rating ZEAMX ([9]; Rate 0.2500 kg/ha): 8.5; herbicidal rating, CYPIR ([10]; rate 0.0080 kg/ha): 0.0; herbicidal rating, CYPIR ([10]; rate 0.0320 kg/ha): 7.0; herbicidal rating, CYPIR ([10]; rate 0.1250 kg/ha): 9.0; herbicidal rating, MOOVA ([11]; rate 0.0080 kg/ha): 0.0; herbicidal rating, MOOVA ([11]; rate 0.0320 kg/ha): 9.0; herbicidal rating, MOOVA ([11]; rate 0.1250 kg/ha): 9.0 |
